Measurements taken from US20250230193A1, “CYCLIC COMPOUND HAVING SELECTIVE KRAS INHIBITORY EFFECT ON HRAS AND NRAS” (CHUGAI SEIYAKU KABUSHIKI KAISHA, priority 2022, published 2025).

How the values were obtained:
[1] = biological target: GDP-bound HRAS wild-type protein (Homo sapiens, UniProt P01112); assay: Binding to HRAS by surface plasmon resonance (SPR), Single Cycle Kinetics; details: KD ratio HRAS/KRAS, class symbols
[2] = biological target: GDP-bound NRAS wild-type protein (Homo sapiens, UniProt P01111); assay: Binding to NRAS by surface plasmon resonance (SPR), Single Cycle Kinetics; details: KD ratio NRAS/KRAS, class symbols
Sequence of GDP-bound NRAS wild-type protein (P01111 whole entry): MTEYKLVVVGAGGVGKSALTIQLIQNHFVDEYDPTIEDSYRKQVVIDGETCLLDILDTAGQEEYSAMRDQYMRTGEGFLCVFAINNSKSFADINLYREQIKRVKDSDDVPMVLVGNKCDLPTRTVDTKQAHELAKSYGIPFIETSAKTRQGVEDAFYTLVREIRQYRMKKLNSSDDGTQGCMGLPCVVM

Sequence of GDP-bound HRAS wild-type protein (P01112 whole entry): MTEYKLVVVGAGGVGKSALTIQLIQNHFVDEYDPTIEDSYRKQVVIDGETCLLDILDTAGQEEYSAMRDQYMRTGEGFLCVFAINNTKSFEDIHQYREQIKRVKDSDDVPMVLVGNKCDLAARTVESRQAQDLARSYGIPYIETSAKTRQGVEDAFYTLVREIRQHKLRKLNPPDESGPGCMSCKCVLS

| SMILES | HRAS/KRAS (ratio of KD value with respect to GDP-bound HRAS wild-type protein to KD value with respect to KRAS) [1] | NRAS/KRAS (ratio of KD value with respect to GDP-bound NRAS wild-type protein to KD value with respect to KRAS) [2] |
| --- | --- | --- |
| CCC[C@H]1C(=O)N[C@@H](CC(C)C)C(=O)N2C[C@@H](OC)C[C@H]2C(=O)N(C)[C@H]2C/C=C\CCN(C2=O)[C@@H](Cc2ccc(C)cc2)C(=O)N(C)CC(=O)N[C@@H](CCc2ccc(C(F)(F)F)c(OC)c2)C(=O)N2C[C@H](OCC)C[C@H]2C(=O)NC2(CCC2)C(=O)N(C)[C@@H](C2CCCC2)C(=O)N(C)[C@H](C(=O)N(C)C)CC(=O)N1C [PP2548] | B (a compound having 3 or more and less than 10 is denoted as B) | A (a compound having 10 or more and less than 20 is denoted as A) |
| CCC[C@H]1C(=O)N[C@@H](CC(C)C)C(=O)N2C[C@@H](OC)C[C@H]2C(=O)N(C)[C@H]2C/C=C\CCN(C2=O)[C@@H](Cc2ccc(C)cc2)C(=O)N(C)CC(=O)N[C@@H](CCc2ccc(C(F)(F)F)c(Cl)c2)C(=O)N2C[C@H](OCC)C[C@H]2C(=O)NC2(CCC2)C(=O)N(C)[C@@H](C2CCCC2)C(=O)N(C)[C@H](C(=O)N(C)C)CC(=O)N1C [PP2549] | B (a compound having 3 or more and less than 10 is denoted as B) | A (a compound having 10 or more and less than 20 is denoted as A) |
| CCC[C@H]1C(=O)N[C@@H]([C@@H](C)CC)C(=O)N2C[C@@H](OC)C[C@H]2C(=O)N(C)[C@H]2C/C=C\CCN(C2=O)[C@@H](Cc2ccc(C)cc2)C(=O)N(C)CC(=O)N[C@@H](CCc2cc(F)c(C(F)(F)F)c(F)c2)C(=O)N2C[C@H](OCC)C[C@H]2C(=O)NC2(CCC2)C(=O)N(C)[C@@H](C2CCCC2)C(=O)N(C)[C@H](C(=O)N(C)C)CC(=O)N1C [PP2550] | B (a compound having 3 or more and less than 10 is denoted as B) | A (a compound having 10 or more and less than 20 is denoted as A) |
| CCC[C@H]1C(=O)N[C@@H](CC(C)C)C(=O)N2C[C@@H](OC)C[C@H]2C(=O)N(C)[C@H]2C/C=C\CCN(C2=O)[C@@H](Cc2ccc(C)cc2)C(=O)N(C)CC(=O)N[C@@H](CCc2cc(F)c(C(F)(F)F)c(F)c2)C(=O)N2C[C@H](OCC)C[C@H]2C(=O)NC2(CC(C)(C)C2)C(=O)N(C)[C@@H](C2CCCC2)C(=O)N(C)[C@H](C(=O)N(C)C)CC(=O)N1C [PP2553] | B (a compound having 3 or more and less than 10 is denoted as B) | A (a compound having 10 or more and less than 20 is denoted as A) |
| CCC[C@H]1C(=O)N[C@@H](CC(C)C)C(=O)N2C[C@@H](OC)C[C@H]2C(=O)N(C)[C@H]2C/C=C\CCN(C2=O)[C@@H](Cc2ccc(C)cc2)C(=O)N(C)CC(=O)N[C@@H](CCc2ccc(C(F)(F)F)c(OC)c2)C(=O)N2C[C@H](OCC)C[C@H]2C(=O)NC2(CC(C)(C)C2)C(=O)N(C)[C@@H](C2CCCC2)C(=O)N(C)[C@H](C(=O)N(C)C)CC(=O)N1C [PP2554] | B (a compound having 3 or more and less than 10 is denoted as B) | A (a compound having 10 or more and less than 20 is denoted as A) |
| CCC[C@H]1C(=O)N[C@@H](CC(C)C)C(=O)N2C[C@@H](OC)C[C@H]2C(=O)N(C)[C@H]2C/C=C\CCN(C2=O)[C@@H](Cc2ccc(C)cc2)C(=O)N(C)CC(=O)N[C@@H](CCc2ccc(C(F)(F)F)c(Cl)c2)C(=O)N2C[C@H](OCC)C[C@H]2C(=O)NC2(CC(C)(C)C2)C(=O)N(C)[C@@H](C2CCCC2)C(=O)N(C)[C@H](C(=O)N(C)C)CC(=O)N1C [PP2555] | B (a compound having 3 or more and less than 10 is denoted as B) | A (a compound having 10 or more and less than 20 is denoted as A) |
| CCC[C@H]1C(=O)N[C@@H]([C@@H](C)CC)C(=O)N2C[C@@H](OC)C[C@H]2C(=O)N(C)[C@H]2C/C=C\CCN(C2=O)[C@@H](Cc2ccc(C)cc2)C(=O)N(C)CC(=O)N[C@@H](CCc2cc(F)c(C(F)(F)F)c(F)c2)C(=O)N2C[C@H](OCC)C[C@H]2C(=O)NC2(CC(C)(C)C2)C(=O)N(C)[C@@H](C2CCCC2)C(=O)N(C)[C@H](C(=O)N(C)C)CC(=O)N1C [PP2556] | B (a compound having 3 or more and less than 10 is denoted as B) | A (a compound having 10 or more and less than 20 is denoted as A) |
| CCC[C@H]1C(=O)N[C@@H]([C@@H](C)CC)C(=O)N2C[C@@H](OC)C[C@H]2C(=O)N(C)[C@H]2C/C=C\CCN(C2=O)[C@@H](Cc2ccc(C)cc2)C(=O)N(C)CC(=O)N[C@@H](CCc2ccc(C(F)(F)F)c(OC)c2)C(=O)N2C[C@H](OCC)C[C@H]2C(=O)NC2(CC(C)(C)C2)C(=O)N(C)[C@@H](C2CCCC2)C(=O)N(C)[C@H](C(=O)N(C)C)CC(=O)N1C [PP2557] | B (a compound having 3 or more and less than 10 is denoted as B) | A (a compound having 10 or more and less than 20 is denoted as A) |
| CCC[C@H]1C(=O)N[C@@H]([C@@H](C)CC)C(=O)N(C2CC2)CC(=O)N(C)[C@H]2C/C=C\CCN(C2=O)[C@@H](Cc2ccc(C)cc2)C(=O)N(C)CC(=O)N[C@@H](CCc2ccc(Cl)c(Cl)c2)C(=O)N2C[C@H](OCC)C[C@H]2C(=O)NC2(CC(C)(C)C2)C(=O)N(C)[C@@H](C2CCCC2)C(=O)N(C)[C@H](C(=O)N(C)C)CC(=O)N1C [PP2559] | A (a compound having 10 or more and less than 20 is denoted as A) | A (a compound having 10 or more and less than 20 is denoted as A) |
| CCC[C@H]1C(=O)N[C@@H]([C@@H](C)CC)C(=O)N(C2CC2)CC(=O)N(C)[C@H]2C/C=C\CCN(C2=O)[C@@H](Cc2ccc(C)cc2)C(=O)N(C)CC(=O)N[C@@H](CCc2cc(F)c(C(F)(F)F)c(F)c2)C(=O)N2C[C@H](OCC)C[C@H]2C(=O)NC2(CC(C)(C)C2)C(=O)N(C)[C@@H](C(CC)CC)C(=O)N(C)[C@H](C(=O)N(C)C)CC(=O)N1C [PP2560] | A (a compound having 10 or more and less than 20 is denoted as A) | AA (a compound having 20 or more is denoted as AA) |
| CCC[C@H]1C(=O)N[C@@H]([C@@H](C)CC)C(=O)N(C2CC2)CC(=O)N(C)[C@H]2C/C=C\CCN(C2=O)[C@@H](Cc2ccc(C)cc2)C(=O)N(C)CC(=O)N[C@@H](CCc2ccc(Cl)c(Cl)c2)C(=O)N2C[C@H](OCC)C[C@H]2C(=O)NC2(CC(C)(C)C2)C(=O)N(C)[C@@H](C(CC)CC)C(=O)N(C)[C@H](C(=O)N(C)C)CC(=O)N1C [PP2561] | A (a compound having 10 or more and less than 20 is denoted as A) | AA (a compound having 20 or more is denoted as AA) |
